Legend:
[1] = tested on: cynomolgus monkey; assay: Single oral dose toxicology study in cynomolgus monkey; assay type: in vivo
Protocol: Nonclinical toxicology studies have been performed with compound A in the rat and cynomolgus monkey. Adverse effects were not observed after single oral doses of up to 500 mg/kg in rat and up to 2000 mg/kg in cynomolgus monkey.

[2] = 14-day Q3D oral toxicology study in rats; assay type: in vivo, rat; details: rat, in vivo
Protocol: (§1) In rats administered 160, 500, or 1000 mg/kg PO every 3 days (Q3D) for 14 days (5 doses total), the no-observed-adverse-effect level (NOAEL) was 160 mg/kg.
(§2) Factors Influencing Starting and Stopping Dose for compound A: The proposed starting dose of compound A (150 mg) was based on considering the NOAEL dose of compound A in the most sensitive species (160 mg/kg dosed Q3D for 14 days in rat), determining the human equivalent dose (HED) based on the body surface area difference between the two species (˜26 mg/kg, or ˜1560 mg for a 60 kg human), followed by applying a safety factor of 10 to yield the maximum recommended starting dose (MRSD). Based on the above considerations, the starting dose of compound A in the present study was 150 mg. Based on an integrated assessment of nonclinical findings with compound A, the planned maximum dose for compound A in the first-time-in-humans (FTIH) study was 2400 mg. Extrapolated on the basis of body surface area, the 2400 mg dose is equivalent to 247 mg/kg in rats and 123 mg/kg in monkeys. […] At 160 mg/kg in monkeys, the only effect was a slight decrease in heart rate (approximately 18%, or approximately 30 beats per minute, compared with vehicle).
(§3) In addition, the present clinical study included frequent clinical laboratory tests.

[3] = tested on: rat; assay: 14-day Q3D oral toxicology study in rats; assay type: in vivo
Protocol: as §1, §2, §3

[4] = tested on: mTORC1; assay: mTORC1 downstream signaling and synaptic changes in medial pre-frontal cortex of rats; assay type: in vivo, rat; details: layer V pyramidal neurons
Excerpt: Compound A [(S)-2-amino-5,5-difluoro-4,4-dimethylpentanoic acid] is a novel, orally bioavailable, specific, small molecule that activates mTORC1 pathway signaling in the brain, including those centers responsible for mood.

[5] = Nonclinical studies, observation of seizures; assay type: in vivo
[6] = tested on: qEEG and event-related potential (ERP); assay: Example 3: qEEG and event-related potential pharmacodynamics; assay type: in vivo, human; details: healthy males
Excerpt: Pharmacodynamic Endpoints: The primary pharmacodynamic endpoint was the change from baseline in the difference between the compound A group and the placebo group on qEEG parameters, including:
Fractal and oscillatory EEG band amplitudes
Fractal and oscillatory EEG band intra- and interhemispheric coherences
The secondary pharmacodynamic endpoints were the changes from baseline in the difference between the compound A group and the placebo group in ERP parameters, including: • Mismatch negativity (MMN) amplitude and latency • P300a amplitude and latency • P300b amplitude and latency • N100 amplitude and latency • N200 amplitude and latency • P200 amplitude and latency • Auditory steady-state response (ASSR) peak-to-peak amplitude • ASSR event-related spectral perturbation (ERSP) • ASSR inter-trial phase coherence (ITPC) • Mean time scores of qEEG parallel factor analysis (PARAFAC) atoms endpoints
Pharmacodynamics were assessed via qEEG and event-related potential (ERP). Frequent PK sampling was included in the study to evaluate the PK of two doses of compound A given approximately 48 hours apart. A PK/PD model was developed that measures qEEG and ERP changes as a function of plasma concentration of compound A as well as determines whether there are any PK/PD differences between Dose 1 and Dose 2 effects.

[7] = tested on: healthy male volunteers; assay: Example 3: safety and tolerability of two sequential doses in healthy male volunteers; assay type: in vivo, human; details: healthy male subjects; two doses 2400 mg 48 hours apart
Protocol: Safety Endpoints: The safety endpoint was to assess the safety and tolerability of sequential doses of compound A vs. placebo in healthy male volunteers, as assessed by clinical laboratory parameters, physical, neurologic, and psychiatric examinations, vital signs, ECGs, EEGs, and adverse events.
This study was designed to evaluate the safety, tolerability, pharmacodynamics, and pharmacokinetics of two sequential doses of 2400 mg compound A (separated by 2 days), compared with placebo, in 24 healthy adult males (12 receiving compound A, 12 receiving placebo).

[8] = tested on: healthy volunteers; assay: Example 4: blinded multiple ascending dose safety and tolerability study; assay type: in vivo, human; details: Cohort 1 (800 mg) and Cohort 2 (1600 mg) once daily for 7 days, compound A or placebo (6:2), preliminary
Protocol: Navitor Pharmaceuticals, Inc. (Navitor) is currently conducting a study to assess the safety, tolerability, and PK of multiple ascending doses of compound A (400 mg, 800 mg, 1600 mg, 2400 mg, and potentially 3000 mg) versus matched placebo in healthy volunteers. This study also includes an assessment of CSF and clinical biomarkers, as well as a cognition test.
The study is planned for 4 cohorts and 1 additional optional cohort. Up to approximately 40 healthy volunteers will be randomly assigned to double-blind treatment. In the initial 4 cohorts, eight (8) subjects will be randomized (3:1; compound A:placebo) in each of the four dosage-level cohorts (800 mg, 1600 mg, 2400 mg, and 400 mg) administered as an oral solution. Within each cohort, six subjects will be randomized to receive compound A and two subjects will be randomized to receive placebo. Each subject randomized will receive compound A or placebo once daily for 7 days. Subjects will dose in the morning and will dose each day at the same time. For cohort 3 (2400 mg), each subject will return to the unit after a minimum 5-day washout to receive an additional single dose of compound A or placebo under fed conditions in Period 2. Assessments of safety, tolerability, and PK as well as exploratory biomarker and clinical measures will occur.
Cohort 1 (800 mg) and Cohort 2 (1600 mg) have been completed. […]

[9] = 2400 mg, not evident in placebo group

## CC(C)(C[C@H](N)C(=O)O)C(F)F [Compound A, (S)-2-amino-5,5-difluoro-4,4-dimethylpentanoic acid]
[1]
  single oral dose up to which adverse effects were not observed: up to 2000 mg/kg
[2]; oral, 160 mg/kg, based on body surface area difference, read-out: human equivalent dose (HED) of rat NOAEL
  human equivalent dose of rat NOAEL at 14 days: ~26 mg/kg
[2]; rats, 160, 500 or 1000 mg/kg PO Q3D for 14 days (5 doses), read-out: no-observed-adverse-effect level (NOAEL)
  NOAEL at 14 days: 160 mg/kg
[3]; based on body surface area difference, 60 kg human
  human equivalent dose (HED) of rat NOAEL for a 60 kg human: ~1560 mg
[3]; rat, in vivo, po
  other findings, not considered adverse: slightly decreased lymphocyte, monocyte, and neutrophil counts
[3]; rat, in vivo, po, 500 mg/kg
  findings at high doses: lymphoid atrophy and decreased leucocyte counts
[3]; rat, in vivo, po, 1000 mg/kg
  adverse effects at 1000 mg/kg: regenerative anemia in one male, considered likely an episode of gastrointestinal (GI) bleeding, and hepatocellular injury in one male
[4]
  mTORC1 downstream signaling, synaptic protein expression, synaptic arborization: increase in mTORC1 downstream signaling, synaptic protein expression (e.g., GluR1 and synapsin), and synaptic arborization
[5]
  seizures: seizures have not been observed
[6]; 2400 mg Day 1 and Day 3
  time to EEG activation after the first and second doses: ≤ 1 h
[6]; [9]
  ASSR high-frequency (harmonic) resonances: increased
  peak latency of N100, P200, P300A components in auditory oddball tasks: reduced
[6]; 2400 mg, qEEG
  changes in low- and high-frequency EEG bands: dose-dependent decreases in low-frequency EEG bands (delta, theta) and increases in high-frequency EEG bands (gamma)
  delta and theta band amplitudes: significantly decreased
  high-frequency band amplitudes (higher beta and gamma bands): increased
  qEEG band coherences: increased coherence in alpha, beta, and gamma bands
  theta-beta ratios: decreased
[6]; 2400 mg, qEEG, within 1 hour after dosing
  alpha band amplitudes: decreased
[6]; single dose 2400 mg, versus placebo
  neural activation on qEEG: rapid and significant neural activation
[7]
  deaths, SAEs, discontinuations due to TEAEs, Grade 2 or 3 TEAEs: no deaths or other SAEs, discontinuations due to TEAEs, or moderate (Grade 2) or severe (Grade 3) TEAEs
  dissociative effects: No dissociative effects were reported
  incidence of TEAEs: 8.3%
  incidence of drug-related TEAEs: 0%
  proconvulsant activity on safety EEGs: no evidence
  safety and tolerability: generally safe and well tolerated
  severity of TEAEs: mild (Grade 1)
[8]
  labs, vital signs or ECG: No clinically significant abnormalities were observed
  severity of AEs: mild
